In paper PMC2948022 (Talanta, 2010):

Legend:
Plasma concentrations of = details: CRPS patient, (R,S)-Ket 40 mg/h continuous infusion, morning of Day 3; estimated using the standard curve for (2S,6S); (2R,6R)-hydroxynorketamine
Urine concentrations of = assay type: in vivo, human; details: CRPS patient, (R,S)-Ket 40 mg/h continuous infusion, morning of Day 3
Relative = assay type: in vivo, human; details: CRPS patient urine, Day 3, AGP-CSP
[1] = cited from earlier work
[2] = cited from earlier work; remark: listed apart in the source
[3] = estimated using the standard curve for (2S,6S), (2R,6R)-hydroxynorketamine
[4] = estimated using the standard curve for (2S,6S)-hydroxyketamine

SMILES | Plasma (Plasma concentrations of) [ng/mL] | Urine (Urine concentrations of; [3]) [ng/mL] | also measured
NC1(c2ccccc2Cl)CC(O)CCC1=O (single isomer, unassigned) [Peak 4e] | 160 | 515 | –
N[C@]1(c2ccccc2Cl)CC[C@@H](O)CC1=O (single isomer, unassigned) [Peak 4f] | 141 | – | Urine (ng/ml) (Urine concentrations of; [3]): 4,099 ng/ml
CNC1(c2ccccc2Cl)CCCCC1=O (single isomer, unassigned; peak 1) [Peak 1, (R.S)-Ketamine] | – | – | relative enantiomeric urine concentration (R)-/(S)- (Relative): 1.0
N[C@@]1(c2ccccc2Cl)CCC[C@@H](O)C1=O (single isomer, unassigned; peak 4a) [Peak 4a] | – | – | concentration in the CNS [1]: reaches significant concentration in the CNS; anesthetic activity [2]: no anesthetic activity
NC1(c2ccccc2Cl)CCCC(O)C1=O (single isomer, unassigned; peak 4b) [Peak 4b] | 881 | 572 | –
N[C@]1(c2ccccc2Cl)CC[C@H](O)CC1=O (single isomer, unassigned; peak 4c) [Peak 4c] | 245 | 940 | –
N[C@]1(c2ccccc2Cl)C[C@@H](O)CCC1=O (single isomer, unassigned; peak 4d) [Peak 4d] | 145 | 475 | –
CN[C@]1(c2ccccc2Cl)CC[C@H](O)CC1=O (single isomer, unassigned; peak 5c) [Peak 5c] | – | – | Urine (Urine concentrations of; [4]): 4 ng/mL
CN[C@@]1(c2ccccc2Cl)CC[C@H](O)CC1=O (single isomer, unassigned; peak 5d) [Peak 5d] | – | – | Urine (Urine concentrations of; [4]): 5 ng/mL
